According to PubChem BioAssay AID1259407 (Chemical Carcinogenesis Research Information System (CCRIS), 2018):
The source made the active and inactive calls. The rule behind the calls is not given here.

Test system: CCRIS mutagenicity, Ames/micronucleus/aberration tests
Experiment: CCRIS mutagenicity studies
[1] = Test System: AMES SALMONELLA TYPHIMURIUM, Strain/Indicator: TA97, Metabolic Activation: NONE, Method: PREINCUBATION
[2] = Test System: AMES SALMONELLA TYPHIMURIUM, Strain/Indicator: TA97, Metabolic Activation: RAT, LIVER, S-9, AROCLOR 1254, Method: PREINCUBATION
[3] = Test System: AMES SALMONELLA TYPHIMURIUM, Strain/Indicator: TA98, Metabolic Activation: NONE, Method: PREINCUBATION
[4] = Test System: AMES SALMONELLA TYPHIMURIUM, Strain/Indicator: TA98, Metabolic Activation: NONE, Method: STANDARD PLATE
[5] = Test System: AMES SALMONELLA TYPHIMURIUM, Strain/Indicator: TA100, Metabolic Activation: NONE, Method: STANDARD PLATE
[6] = Test System: AMES SALMONELLA TYPHIMURIUM, Strain/Indicator: TA102, Metabolic Activation: NONE, Method: PREINCUBATION
[7] = Test System: AMES SALMONELLA TYPHIMURIUM, Strain/Indicator: TA102, Metabolic Activation: RAT, LIVER, S-9, AROCLOR 1254, Method: PREINCUBATION
[8] = Test System: AMES SALMONELLA TYPHIMURIUM, Strain/Indicator: TA1535, Metabolic Activation: NONE, Method: PREINCUBATION
[9] = Test System: AMES SALMONELLA TYPHIMURIUM, Strain/Indicator: TA1537, Metabolic Activation: NONE, Method: PREINCUBATION
[10] = Test System: AMES SALMONELLA TYPHIMURIUM, Strain/Indicator: TA98, Metabolic Activation: RAT, LIVER, S-9, AROCLOR 1254, Method: STANDARD PLATE
[11] = Test System: AMES SALMONELLA TYPHIMURIUM, Strain/Indicator: TA100, Metabolic Activation: RAT, LIVER, S-9, AROCLOR 1254, Method: STANDARD PLATE

## O=P(O)(O)O
End Point: IN VITRO CHROMOSOMAL ABERRATIONS, Test System: CHO CELLS, Metabolic Activation: NONE
  mutagenic call: inactive; negative
End Point: IN VITRO CHROMOSOMAL ABERRATIONS, Test System: CHO CELLS, Metabolic Activation: RAT, LIVER, S-9, AROCLOR 1254
  mutagenic call: active; positive
Test System: AMES SALMONELLA TYPHIMURIUM, Strain/Indicator: TA97, Metabolic Activation: HAMSTER, LIVER, S-9, AROCLOR 1254, Method: PREINCUBATION
  mutagenic call: inactive; negative
[1]
  mutagenic call: inactive; negative
Test System: AMES SALMONELLA TYPHIMURIUM, Strain/Indicator: TA97, Metabolic Activation: NONE, Method: STANDARD PLATE
  mutagenic call: inactive; negative
[2]
  mutagenic call: inactive; negative
Test System: AMES SALMONELLA TYPHIMURIUM, Strain/Indicator: TA97, Metabolic Activation: RAT, LIVER, S-9, PHENOBARBITAL, Method: STANDARD PLATE
  mutagenic call: inactive; negative
Test System: AMES SALMONELLA TYPHIMURIUM, Strain/Indicator: TA97, Metabolic Activation: S-9, Method: PREINCUBATION
  mutagenic call: inactive; negative
Test System: AMES SALMONELLA TYPHIMURIUM, Strain/Indicator: TA98, Metabolic Activation: HAMSTER, LIVER, S-9, AROCLOR 1254, Method: PREINCUBATION
  mutagenic call: inactive; negative
[3]
  mutagenic call: inactive; negative
[4]
  mutagenic call: inactive; negative
Test System: AMES SALMONELLA TYPHIMURIUM, Strain/Indicator: TA98, Metabolic Activation: RAT, LIVER, S-9, AROCLOR 1254, Method: PREINCUBATION
  mutagenic call: inactive; negative
Test System: AMES SALMONELLA TYPHIMURIUM, Strain/Indicator: TA98, Metabolic Activation: RAT, LIVER, S-9, PHENOBARBITAL, Method: STANDARD PLATE
  mutagenic call: inactive; negative
Test System: AMES SALMONELLA TYPHIMURIUM, Strain/Indicator: TA100, Metabolic Activation: HAMSTER, LIVER, S-9, AROCLOR 1254, Method: PREINCUBATION
  mutagenic call: inactive; negative
Test System: AMES SALMONELLA TYPHIMURIUM, Strain/Indicator: TA100, Metabolic Activation: NONE, Method: PREINCUBATION
  mutagenic call: inactive; negative
[5]
  mutagenic call: inactive; negative
Test System: AMES SALMONELLA TYPHIMURIUM, Strain/Indicator: TA100, Metabolic Activation: RAT, LIVER, S-9, AROCLOR 1254, Method: PREINCUBATION
  mutagenic call: inactive; negative
Test System: AMES SALMONELLA TYPHIMURIUM, Strain/Indicator: TA100, Metabolic Activation: RAT, LIVER, S-9, PHENOBARBITAL, Method: STANDARD PLATE
  mutagenic call: inactive; negative
[6]
  mutagenic call: inactive; negative
[7]
  mutagenic call: inactive; negative
Test System: AMES SALMONELLA TYPHIMURIUM, Strain/Indicator: TA102, Metabolic Activation: S-9, Method: PREINCUBATION
  mutagenic call: inactive; negative
Test System: AMES SALMONELLA TYPHIMURIUM, Strain/Indicator: TA104, Metabolic Activation: NONE, Method: STANDARD PLATE
  mutagenic call: inactive; negative
Test System: AMES SALMONELLA TYPHIMURIUM, Strain/Indicator: TA104, Metabolic Activation: RAT, LIVER, S-9, PHENOBARBITAL, Method: STANDARD PLATE
  mutagenic call: inactive; negative
[8]
  mutagenic call: inactive; negative
Test System: AMES SALMONELLA TYPHIMURIUM, Strain/Indicator: TA1537, Metabolic Activation: HAMSTER, LIVER, S-9, AROCLOR 1254, Method: PREINCUBATION
  mutagenic call: inactive; negative
[9]
  mutagenic call: inactive; negative
Test System: AMES SALMONELLA TYPHIMURIUM, Strain/Indicator: TA1537, Metabolic Activation: RAT, LIVER, S-9, AROCLOR 1254, Method: PREINCUBATION
  mutagenic call: inactive; negative

## C1=Cc2cc3ccccc3c3cccc1c23
[4]
  mutagenic call: inactive; negative
[10]
  mutagenic call: active; positive
[5]
  mutagenic call: inactive; negative
[11]
  mutagenic call: active; positive

## CCOc1ccc([N+](=O)[O-])cc1
[3]
  mutagenic call: active; positive
Test System: AMES SALMONELLA TYPHIMURIUM, Strain/Indicator: TA100(NR), Metabolic Activation: RAT, LIVER, S-9, PCB, Method: PREINCUBATION
  mutagenic call: inactive; negative
[8]
  mutagenic call: inactive; negative
[9]
  mutagenic call: inactive; negative
Test System: AMES SALMONELLA TYPHIMURIUM, Strain/Indicator: TA1538, Metabolic Activation: NONE, Method: PREINCUBATION
  mutagenic call: inactive; negative
Test System: AMES SALMONELLA TYPHIMURIUM, Strain/Indicator: YG1026, Metabolic Activation: NONE, Method: PREINCUBATION
  mutagenic call: active; positive
Test System: AMES SALMONELLA TYPHIMURIUM, Strain/Indicator: YG1029, Metabolic Activation: NONE, Method: PREINCUBATION
  mutagenic call: active; positive
Test System: AMES SALMONELLA TYPHIMURIUM, Strain/Indicator: YG1042, Metabolic Activation: NONE, Method: PREINCUBATION
  mutagenic call: active; positive

## Nc1nc2c(ncn2CCC(CO)CO)c(=O)[nH]1
End Point: IN VITRO CHROMOSOMAL ABERRATIONS, Test System: CHO CELLS (CHO-HSVTK), Metabolic Activation: NONE
  mutagenic call: active; positive (pulverized chromosome and condensation defects); concentration chosen

## O=BOO
Test System: AMES SALMONELLA TYPHIMURIUM, Strain/Indicator: TA102, Metabolic Activation: NONE, Method: STANDARD PLATE
  mutagenic call: active; positive
Test System: E. COLI, Strain/Indicator: WP2 (PKM101), Metabolic Activation: NONE, Method: STANDARD PLATE
  mutagenic call: active; positive
Test System: E. COLI, Strain/Indicator: WP2 UVRA (PKM101), Metabolic Activation: NONE, Method: STANDARD PLATE
  mutagenic call: active; positive

## ClC(Cl)=C(Cl)c1ccc(Cl)c(Cl)c1Cl
[4]
  mutagenic call: inactive; negative
[10]
  mutagenic call: inactive; negative
[5]
  mutagenic call: inactive; negative
[11]
  mutagenic call: inactive; negative

## Fc1ccc2cccnc2c1F
Test System: AMES SALMONELLA TYPHIMURIUM, Strain/Indicator: TA100, Metabolic Activation: RAT LIVER S-9, PHENOBARBITAL AND 5,6-BENZOFLAVONE, Method: PREINCUBATION
  mutagenic call: active; positive

## CCCC(=O)OCCC(C)C
[1]
  mutagenic call: inactive; negative
[2]
  mutagenic call: inactive; negative
[6]
  mutagenic call: inactive; negative
[7]
  mutagenic call: inactive; negative
